# In US20260062705A1, “TREATMENT FOR OVARIAN CANCER WITH OLIGONUCLEOTIDES TARGETING FIBROBLAST ACTIVATION PROTEIN ALPHA” (UNIVERSITY OF FLORIDA RESEARCH FOUNDATION, INCORPORATED, priority 2022, published 2026):
# Where a SMILES comes first, the peptide text is derived from it. The star is where a group is joined. Cbz = O=C(OCc1ccccc1)*; CH2F = FC*
# Legend:
# Format in all cases: cell-based, human
# HEY cells = assay: CCK-8 cell viability assay; conditions: for effect on cell viability: 100 nM for 4 days, FIG. 4D
# Method: (§1) Briefly, cells were cultured in 96-well plates and CCK-8 reagent was added to cells. After 2-h incubation at 37° C., absorbance was measured using a Bio-Rad plate reader at 460 nm. In vitro invasion was assayed using Matrigel invasion chamber available from Cell Biolabs Inc (San Diego, CA) according to manufacturer's protocol. Flow cytometry-based cell apoptosis was determined using Dead Cell Apoptosis Kits with Annexin V (Thermo Fisher, Cat #V13242) according to manufacturer's protocol. Lipid raft fractions were prepared using Minute™ Plasma Membrane-Derived Lipid Raft Isolation Kit (Invent Biotechnologies, Plymouth, MN) according to manufacturer's protocol.
# OVCAR8 cells = assay: CCK-8 cell viability assay; conditions: for effect on cell viability: 100 nM for 4 days, FIG. 4D
# Method: as §1
# [1] = system: FAP-PRKDC co-localization in OVCAR8 cells; assay: Confocal immunofluorescence staining of FAP and PRKDC; conditions: 5 mM MBC for 1 day, FIG. 6E
# Method: (§2) Immunofluorescence staining: Cells were plated on coverslips for overnight and then fixed with 4% paraformaldehyde followed by permeabilization with 1% Triton X-100. Cells were washed three times with 1×PBS (Thermo Fisher, Cat #: 10010049). After brief blocking with 1% BSA, cells were incubated with anti-FAP mAb (Cat #sc-65398, Santa Cruz Biotechnology, Santa Cruz, CA) or anti-PRKDC polyclonal antibody (Cat #ab32566, Abcam) for 1 h and then with secondary antibody (Alexa Fluor® 488 and Alexa Fluor® 568) for another hour. Coverslips were mounted on […] using Permount solution (Cat #: P36961, Thermo Fisher) and cell fluorescence staining was viewed with confocal microscopy (Carl Zeiss Vision, LSM510). To locate lipid rafts, recombinant Cholera toxin subunit B conjugated with Alexa Fluor™ 647 (Cat #C34778, Thermo Fisher) was included during incubation with secondary antibody.
# (§3) Both FAP and PRKDC have been reported to be present in the lipid rafts with unknown function (13, 14). We investigated whether FAP-PRKDC interaction occurred in lipid rafts. We first isolated lipid fraction from HEY and OVCAR8 cells followed by western blot analysis to detect FAP and PRKDC. As well characterized lipid raft marker caveolin-1, both FAP and PRKDC were readily seen in lipid raft isolates (FIG. 6C). […]
# [2] = system: FAP-PRKDC co-localization in HEY cells; assay: as above; conditions: 5 mM MBC for 1 day, FIG. 6E
# Method: as §2, §3
molecule,measurement,setting,value
"CC(C)[C@H](N)C(=O)N1CCC[C@H]1B(O)O [Alabostat, Talabostat]",effect on survival,"HEY cells; HEY cells, 1 mM Batimastat or 1 μM Talabostat alone or in combination, 4 days, FIG. 9",little effect
same,effect on survival,"OVCAR8 cells; OVCAR8 cells, 1 mM Batimastat or 1 μM Talabostat alone or in combination, 4 days, FIG. 9",little effect
CC[C@H](NC(=O)[C@H](C)NC)C(=O)N1C[C@@H](O)C[C@H]1Cc1c(-c2[nH]c3cc(F)ccc3c2C[C@@H]2C[C@H](O)CN2C(=O)[C@H](CC)NC(=O)[C@H](C)NC)[nH]c2cc(F)ccc12 [Birinapant],effect on cell viability,HEY cells; HEY cells,much less inhibitory effect
same,effect on cell viability,OVCAR8 cells; OVCAR8 cells,much less inhibitory effect
Cc1c(-c2c(-c3ccc(F)o3)sc3ncnc(O[C@H](Cc4ccccc4OCc4ccnn4CC(F)(F)F)C(=O)O)c23)ccc(OCCN2CCN(C)CC2)c1Cl [S63845],effect on cell viability,HEY cells; HEY cells,much less inhibitory effect
same,effect on cell viability,OVCAR8 cells; OVCAR8 cells,much less inhibitory effect
COCCn1c2c([n+](Cc3cnccn3)c1C)C(=O)c1ccccc1C2=O [YM155],effect on cell viability,HEY cells; HEY cells,significant decrease in cell viability
same,effect on cell viability,OVCAR8 cells; OVCAR8 cells,significant decrease in cell viability
COC(=O)C[C@H](NC(=O)[C@H](C)NC(=O)[C@@H](NC(=O)OCc1ccccc1)C(C)C)C(=O)CF [zVAD] (Cbz-Val-Ala-Asp(OMe)-CH2F),effect on FAP shRNA-led cell death,"HEY cells; HEY cells transduced with FAP shRNA, 10 μM from one day post-infection, total 4 days, FIG. 2E",blocked anti-FAP shRNA-led cell death
same,effect on FAP shRNA-led cell death,"OVCAR8 cells; OVCAR8 cells transduced with FAP shRNA, 10 μM from one day post-infection, total 4 days, FIG. 2E",blocked anti-FAP shRNA-led cell death
Methyl-beta-cyclodextrin [MBC],FAP-PRKDC co-localization after disruption of lipid rafts,[1],undetectable FAP-PRKDC co-localization
same,FAP-PRKDC co-localization after disruption of lipid rafts,[2],undetectable FAP-PRKDC co-localization
